Test results from PMC2364952, “The Anti-Inflammatory Activity of Boron Derivatives in Rodents” (Metal-Based Drugs, 1995).
pIC50: −log10 of the molar value.

What was measured:
[1] = target: prostaglandin cyclooxygenase; experiment: Prostaglandin cyclooxygenase activity, macrophages; type: cell-based, mouse (J774 macrophages); details: Table 7
trypsin [2] = experiment: Trypsin proteolytic activity, mouse macrophages; type: cell-based, mouse (J774 macrophages); details: Table 5; read-out: IC50 Trypsin, Mouse Macrophage
[3] = test system: carrageenan-induced pleural fluid; experiment: Anti-pleurisy screen; type: in vivo, Sprague Dawley male rats; details: for pleurisy edema in rats: 8 mg/kg; for Rat Pleurisy: rats, 8 mg/kg I.P., 1 h before and 3 h after carrageenan, Table 2;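 as to Rat Pleurisy: Pleural fluid volume as percent of control rats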
aryl sulphatase = experiment: Aryl sulfatase activity, mouse macrophages; type: cell-based, mouse (J774 macrophages); details: Table 3; read-out: IC50 Aryl Sulfatase, Mouse Macrophage
[4] = test system: acetic acid induced stretch reflex; experiment: Local analgesic screen (acetic acid writhing); type: in vivo, CF1 mice; details: for Mice Writhing Reflex: 8 mg/kg I.P., Table 2; for reduction of the reflex action: mice, acetic acid induced local pain, 8 mg/kg
elastase [5] = experiment: Elastase activity, mouse macrophages; type: cell-based, mouse (J774 macrophages); details: Table 5; read-out: IC50 Elastase, Mouse Macrophage
cathepsin = experiment: Cathepsin activity, mouse macrophages; type: cell-based, mouse (J774 macrophages); details: Table 3; read-out: IC50 Cathepsin, Mouse Macrophage
[6] = test system: carrageenan-induced inflammation of paw; experiment: Carrageenan-induced paw edema, rats; type: in vivo, Sprague Dawley male rats; details: for Rat Inflammatory: 8 mg/kg x 2, I.P., Table 2;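 as to Rat Inflammatory: paw weight increase as percent of control rats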
[7] = target: T1, prostaglandin cyclooxygenase (Bos taurus, UniProt O62664); experiment: Prostaglandin synthetase from bovine seminal vesicles; type: biochemical; details: Table 7; read-out: IC50 Prostaglandin Cyclooxygenase, Beef Seminal Vesicle
T1 construct: purified commercial prostaglandin synthetase from bovine seminal vesicles (Miles Research Products); purchased Miles Research Products; host or cells: bovine seminal vesicles (tissue preparation)
T1 sequence (O62664 25-600): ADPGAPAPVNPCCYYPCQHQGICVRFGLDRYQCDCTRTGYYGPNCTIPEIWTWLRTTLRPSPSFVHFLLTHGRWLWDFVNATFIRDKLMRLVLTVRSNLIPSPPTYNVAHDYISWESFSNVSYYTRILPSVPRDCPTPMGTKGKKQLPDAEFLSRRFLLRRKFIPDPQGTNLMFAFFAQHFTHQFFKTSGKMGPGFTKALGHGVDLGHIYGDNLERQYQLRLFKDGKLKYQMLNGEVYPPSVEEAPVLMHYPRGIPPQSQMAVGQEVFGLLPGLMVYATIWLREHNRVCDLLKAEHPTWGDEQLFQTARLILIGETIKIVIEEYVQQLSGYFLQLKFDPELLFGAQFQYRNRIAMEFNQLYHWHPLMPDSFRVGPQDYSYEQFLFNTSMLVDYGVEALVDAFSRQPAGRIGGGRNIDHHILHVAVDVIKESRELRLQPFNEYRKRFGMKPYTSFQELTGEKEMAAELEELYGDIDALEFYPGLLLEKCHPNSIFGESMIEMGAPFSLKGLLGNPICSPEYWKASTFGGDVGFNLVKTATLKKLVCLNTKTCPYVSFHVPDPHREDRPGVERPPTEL

[8] = test system: adjuvant (M. butyricum) arthritis; experiment: Chronic adjuvant arthritic screen; type: in vivo; details: rats; for Rat Chronic Arthritis: 8 mg/kg/day I.P., Day 3 to Day 21, Table 2
[9] = test system: tail flick response to heat; experiment: Hot plate tail flick screen; type: in vivo, CF1 male mice; details: for Mice Tail Flick: 8 mg/kg I.P., hot plate, Table 2; for tail flick assay time: mice, 8 mg/kg
acid phosphatase = experiment: Acid phosphatase activity, mouse macrophages; type: cell-based, mouse (J774 macrophages); details: Table 3; read-out: IC50 Acid Phosphatase, Mouse Macrophage
[10] = test system: prostaglandin cyclooxygenase; experiment: Prostaglandin cyclooxygenase activity, Be Sal cells; type: cell-based, human (Be Sal osteofibrolytic cells); details: Table 7; read-out: IC50 Prostaglandin Cyclooxygenase, Be Sal Osteofibro
5'-lipoxygenase [11] = target: T2, 5'-lipoxygenase (Homo sapiens, UniProt P09917); experiment: 5'-Lipoxygenase activity, human leukocytes; type: cell-based; details: Table 7
T2 construct: endogenous in cells; host or cells: RMPI 1788 human leukocytes
T2 sequence (P09917 1-674): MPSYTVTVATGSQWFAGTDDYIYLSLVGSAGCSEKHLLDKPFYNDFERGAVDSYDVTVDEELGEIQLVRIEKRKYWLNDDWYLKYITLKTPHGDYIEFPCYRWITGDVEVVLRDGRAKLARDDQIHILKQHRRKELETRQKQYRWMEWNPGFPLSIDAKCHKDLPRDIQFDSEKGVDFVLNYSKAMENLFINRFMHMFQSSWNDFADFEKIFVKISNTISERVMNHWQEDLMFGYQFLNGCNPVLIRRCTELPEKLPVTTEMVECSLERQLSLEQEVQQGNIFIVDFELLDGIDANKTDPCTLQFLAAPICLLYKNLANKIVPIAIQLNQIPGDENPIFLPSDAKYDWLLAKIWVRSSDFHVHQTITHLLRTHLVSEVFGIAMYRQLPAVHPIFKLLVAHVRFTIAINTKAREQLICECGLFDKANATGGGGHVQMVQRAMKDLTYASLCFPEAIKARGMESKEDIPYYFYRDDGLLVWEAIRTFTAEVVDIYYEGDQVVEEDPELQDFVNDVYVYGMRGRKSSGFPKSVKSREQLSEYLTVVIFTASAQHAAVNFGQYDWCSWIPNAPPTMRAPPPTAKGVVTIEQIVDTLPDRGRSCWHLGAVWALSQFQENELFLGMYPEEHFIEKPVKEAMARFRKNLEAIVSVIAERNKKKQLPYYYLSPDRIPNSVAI

elastase [12] = experiment: Elastase activity, UMR-106 osteosarcoma cells; type: cell-based; details: Table 6; read-out: IC50 Elastase, Rat UMR-106 Bone Osteosarcoma
5'-lipoxygenase [13] = target: T3, 5'-lipoxygenase (Mus musculus, UniProt P48999); experiment: 5'-Lipoxygenase activity, mouse macrophages; type: cell-based; details: Table 7; read-out: IC50 5'-Lipoxygenase, Mouse Macrophage
T3 construct: endogenous in cells; host or cells: mouse macrophages (J774A as maintained above)
T3 sequence (P48999 1-674): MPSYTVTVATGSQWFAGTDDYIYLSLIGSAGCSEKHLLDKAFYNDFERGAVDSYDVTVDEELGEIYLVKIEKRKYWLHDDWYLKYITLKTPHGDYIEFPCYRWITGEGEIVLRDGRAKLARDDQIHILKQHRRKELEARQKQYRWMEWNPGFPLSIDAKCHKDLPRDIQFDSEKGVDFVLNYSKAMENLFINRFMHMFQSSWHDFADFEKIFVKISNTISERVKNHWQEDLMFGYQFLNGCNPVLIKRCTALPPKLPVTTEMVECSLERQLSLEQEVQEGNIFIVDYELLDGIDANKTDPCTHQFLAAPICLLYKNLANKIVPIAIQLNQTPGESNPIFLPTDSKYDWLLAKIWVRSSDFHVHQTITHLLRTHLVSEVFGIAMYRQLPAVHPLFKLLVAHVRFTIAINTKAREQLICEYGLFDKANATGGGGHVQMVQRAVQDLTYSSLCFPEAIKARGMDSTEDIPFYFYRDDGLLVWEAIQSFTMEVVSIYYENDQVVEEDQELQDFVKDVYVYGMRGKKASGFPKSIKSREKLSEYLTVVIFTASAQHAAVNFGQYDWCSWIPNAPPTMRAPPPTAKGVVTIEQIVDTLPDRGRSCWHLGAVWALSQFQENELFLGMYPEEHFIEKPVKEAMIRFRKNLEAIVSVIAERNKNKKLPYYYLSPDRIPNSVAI

neutral cathepsin = experiment: Cathepsin activity, UMR-106 osteosarcoma cells; type: cell-based; details: Table 6; read-out: IC50 Neutral Cathepsin, Rat UMR-106 Bone Osteosarcoma
trypsin [14] = experiment: Trypsin activity, UMR-106 osteosarcoma cells; type: cell-based; details: Table 6; read-out: IC50 Trypsin, Rat UMR-106 Bone Osteosarcoma

Compound | pIC50 [1] | pIC50 (trypsin [2]) | pleurisy edema in rats [3] | Rat Pleurisy [3] | pIC50 (aryl sulphatase) | Mice Writhing Reflex [4] | reduction of the reflex action [4] [%] | pIC50 (elastase [5]) | pIC50 (cathepsin) | Rat Inflammatory [6] | pIC50 [7] | activity in chronic arthritis screen ([8]; 8 mg/kg/day) | Rat Chronic Arthritis [8] | pIC50 (acid phosphatase) | pIC50 [10] | pIC50 (5'-lipoxygenase [11]) | pIC50 (elastase [12]) | pIC50 (5'-lipoxygenase [13]) | pIC50 (neutral cathepsin) | pIC50 (trypsin [14]) | other results
CCCCCCCCCCCCCCCC[N+](C)(C)[BH2-]C(=O)O [Compound 8] | 5.59 | 5.90 | reduced significantly | 19 % of control | 5.01 | 16 % of control | 80 | 5.74 | 5.14 | 59 % of control | 5.61 | significantly active | 40 % of control | 6.03 | 5.17 | 5.82 | 5.02 | 5.06 | 5.18 | 5.18 | reduction in induced edema in rats ([6]; 8 mg/kg x 2): at least 40%; Mice Tail Flick [9]: 167 % of control; tail flick assay time [9]: increased
O=C(O)[BH2-][P+](c1ccccc1)(c1ccccc1)c1ccccc1 [Compound 12] | 5.45 | 5.75 | reduced significantly | 28 % of control | 5.07 | 19 % of control | 80 | 5.52 | 5.26 | 61 % of control | 5.12 | significantly active | 49 % of control | 5.97 | 5.26 | 5.32 | 5.05 | 5.01 | 5.24 | 5.25 | Mice Tail Flick [9]: 197 % of control; tail flick assay time [9]: increased
C[N+](C)(C)[BH2-]C#N [Compound 34] | 5.23 | 5.85 | reduced significantly | 65 % of control | 5.03 | 18 % of control | 80 | 5.87 | 5.20 | 65 % of control | 5.23 | – | 4 % of control | 5.98 | 5.37 | 5.19 | 5.05 | 5.09 | 5.26 | 5.58 | reduction of pannus ([8]; 8 mg/kg/day): greater than 75%
